EC50 data for 5 molecules are collected here from patent publication US12097241B2, “Methods of treating kidney failure, and/or improving or stablizing renal function using modified relaxin polypeptides” (BRISTOL-MYERS SQUIBB COMPANY, priority 2017, dated 2024).

The structures appear in SMILES notation. Read-outs that look alike come from different tables or passages of the source.

The assay addresses T1, human RXFP1 receptor (Homo sapiens, UniProt Q9HBX9).
T1 construct: expressed in transfected cells
T1 sequence (Q9HBX9 1-757): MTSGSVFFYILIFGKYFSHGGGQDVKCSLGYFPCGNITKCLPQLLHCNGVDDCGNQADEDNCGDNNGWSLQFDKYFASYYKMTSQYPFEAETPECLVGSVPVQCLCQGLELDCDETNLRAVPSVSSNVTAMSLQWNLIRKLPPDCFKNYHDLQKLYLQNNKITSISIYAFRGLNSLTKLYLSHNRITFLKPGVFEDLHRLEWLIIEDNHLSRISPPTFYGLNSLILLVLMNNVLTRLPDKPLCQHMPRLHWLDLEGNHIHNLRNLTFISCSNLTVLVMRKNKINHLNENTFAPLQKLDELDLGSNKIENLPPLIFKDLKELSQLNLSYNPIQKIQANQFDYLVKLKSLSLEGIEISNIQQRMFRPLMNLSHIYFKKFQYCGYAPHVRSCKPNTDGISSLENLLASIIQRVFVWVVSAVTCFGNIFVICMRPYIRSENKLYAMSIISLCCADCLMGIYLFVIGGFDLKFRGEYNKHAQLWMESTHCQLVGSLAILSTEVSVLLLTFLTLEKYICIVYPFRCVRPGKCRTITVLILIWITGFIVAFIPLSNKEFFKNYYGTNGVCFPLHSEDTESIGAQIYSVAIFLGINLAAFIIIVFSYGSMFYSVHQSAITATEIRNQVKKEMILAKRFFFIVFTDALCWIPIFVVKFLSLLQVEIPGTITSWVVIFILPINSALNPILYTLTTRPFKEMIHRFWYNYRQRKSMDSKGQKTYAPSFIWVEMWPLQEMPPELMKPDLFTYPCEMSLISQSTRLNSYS
The assay is described as follows: Intracellular cAMP accumulation assay. The format is cell-based.

Procedure: The intracellular cAMP accumulation assay described herein was used to assess relaxin bioactivity and potency.
CHO-K1 cells (ATCC; Cat. #CRL-9618) stably expressing the human RXFP1 receptor (locus number LOC59350) (10,000/well) were plated into 96-well plates and cultured overnight at 37° C. and 5% CO2. On the following day, the medium was removed from the wells and the cells were stimulated with the addition of ligand (relaxin polypeptide) in 50 uL buffer (1×HBSS, 5 mM HEPES (7.2), 0.5 mM IBMX, 0.1% BSA); incubation was for 10 min at 37° C. Unstimulated cells were utilized as reference controls. Reactions were terminated and cellular cAMP levels were measured using the Homogeneous Time Resolved Fluorescence (HTRF) Dynamic 2 cAMP kit (CisBio, #62AM4PEC) according to the manufacturer's protocol. Plates were analyzed using an EnVision 2104 Multilablel Reader (PerkinElmer). Signal was expressed in terms of the ratio of fluorescence intensity @ 665 nm/fluorescence intensity @620 nm×10,000. The concentration of cAMP in the sample was determined by comparison with standard curves generated from known concentrations of cAMP. The potency of each relaxin was determined using a ten-point concentration response curves which was performed in duplicate. The data were analyzed using Microsoft Excel, Version 2013 Xlfit software. Effective concentration 50 (EC50) values, the point at which the response was one-half maximal, were calculated using a four-parameter logistic equation that allowed for a variable-slope (Table 3).

As for `CC[C@H](C)[C@@H]1NC(=O)[C@H](C)NC(=O)[C@H]([C@@H](C)CC)NC(=O)[C@H](CCC(N)=O)NC(=O)[C@H](C)NC(=O)[C@H](CCCNC(=N)N)NC(=O)[C@H](C(C)C)NC(=O)[C@H](CC(C)C)NC(=O)[C@H](CCC(=O)O)NC(=O)[C@H](CCCNC(=N)N)NC(=O)CNC(=O)[C@@H](NC(=O)[C@H](CC(C)C)NC(=O)[C@H](CCCCN)NC(=O)[C@@H](NC(=O)[C@@H](NC(=O)[C@H](CCC(=O)O)NC(=O)[C@H](CCC(=O)O)NC(=O)[C@H](CCSC)NC(=O)[C@H](Cc2c[nH]c3ccccc23)NC(=O)[C@H](CO)NC(=O)[C@H](C)N)C(C)C)[C@@H](C)CC)CSSC[C@@H]2NC(=O)[C@@H](NC(=O)[C@H](CCCCN)NC(=O)[C@H](CC(N)=O)NC(=O)[C@H](C)NC(=O)[C@H](CC(C)C)NC(=O)[C@H](C)NC(=O)[C@H](CO)NC(=O)[C@H](Cc3ccc(O)cc3)NC(=O)[C@H](CC(C)C)NC(=O)[C@@H](N)Cc3ccc(/C(C)=N/OCCNC(=O)CN(C)C(=O)CN(C)C(=O)CN(C)C(=O)CN(C)C(=O)[C@H](CO)NC(=O)CC[C@H](NC(=O)CCCCCCCCCCCCC(=O)O)C(=O)O)cc3)CSSC[C@H](NC(=O)CNC(=O)[C@H](C(C)C)NC(=O)[C@H](Cc3c[nH]cn3)NC2=O)C(=O)N[C@@H]([C@@H](C)O)C(=O)N[C@@H](CCCCN)C(=O)N[C@@H](CCCNC(=N)N)C(=O)N[C@@H](CO)C(=O)N[C@@H](CC(C)C)C(=O)N[C@@H](C)C(=O)N[C@@H](CCCNC(=N)N)C(=O)N[C@@H](Cc2ccccc2)C(=O)N[C@H](C(=O)O)CSSC[C@@H](C(=O)NCC(=O)N[C@@H](CCSC)C(=O)N[C@@H](CO)C(=O)N[C@H](C(=O)N[C@@H](Cc2c[nH]c3ccccc23)C(=O)N[C@@H](CO)C(=O)O)[C@@H](C)O)NC1=O` [AQ1-Sar-Sar-Sar-Sar-Ser-Glu^γ-C13-COOH], the EC50 (CHO-K1 cells stably expressing human RXFP1, 10 min at 37° C., HTRF cAMP, average, read-out: hRXFP1/CHO-K1 cAMP EC50 (nM, avg)) was 0.32 nM. Take `CCCCCCCCCCCCCCC(=O)N[C@@H](CCC(=O)N[C@@H](CCC(=O)O)C(=O)N[C@@H](CCC(=O)O)C(=O)N[C@@H](CCC(=O)O)C(=O)N[C@@H](CCC(=O)O)C(=O)N[C@@H](CCC(=O)O)C(=O)N[C@@H](CCC(=O)O)C(=O)NCCON=C(C)c1ccc(C[C@H](N)C(=O)N[C@@H](CC(C)C)C(=O)N[C@@H](Cc2ccc(O)cc2)C(=O)N[C@@H](CO)C(=O)N[C@@H](C)C(=O)N[C@@H](CC(C)C)C(=O)N[C@@H](C)C(=O)N[C@@H](CC(N)=O)C(=O)N[C@@H](CCCCN)C(=O)N[C@H]2CSSC[C@@H]3NC(=O)CNC(=O)[C@H](C(C)C)NC(=O)[C@H](Cc4c[nH]cn4)NC(=O)[C@H](CSSC[C@H](NC(=O)[C@H](CC(C)C)NC(=O)[C@H](CCCCN)NC(=O)[C@@H](NC(=O)[C@@H](NC(=O)[C@H](CCC(=O)O)NC(=O)[C@H](CCC(=O)O)NC(=O)[C@H](CCSC)NC(=O)[C@H](Cc4c[nH]c5ccccc45)NC(=O)[C@H](CO)NC(=O)[C@H](C)N)C(C)C)[C@@H](C)CC)C(=O)NCC(=O)N[C@@H](CCCNC(=N)N)C(=O)N[C@@H](CCC(=O)O)C(=O)N[C@@H](CC(C)C)C(=O)N[C@@H](C(C)C)C(=O)N[C@@H](CCCNC(=N)N)C(=O)N[C@@H](C)C(=O)N[C@@H](CCC(N)=O)C(=O)N[C@@H]([C@@H](C)CC)C(=O)N[C@@H](C)C(=O)N[C@@H]([C@@H](C)CC)C(=O)N[C@H](C(=O)NCC(=O)N[C@@H](CCSC)C(=O)N[C@@H](CO)C(=O)N[C@H](C(=O)N[C@@H](Cc4c[nH]c5ccccc45)C(=O)N[C@@H](CO)C(=O)O)[C@@H](C)O)CSSC[C@@H](C(=O)O)NC(=O)[C@H](Cc4ccccc4)NC(=O)[C@H](CCCNC(=N)N)NC(=O)[C@H](C)NC(=O)[C@H](CC(C)C)NC(=O)[C@H](CO)NC(=O)[C@H](CCCNC(=N)N)NC(=O)[C@H](CCCCN)NC(=O)[C@H]([C@@H](C)O)NC3=O)NC2=O)cc1)C(=O)O` [AQ1-EEEEEE-Glu^γ-C14-CH3]: the EC50 was found to be 0.38 nM.

`CC[C@H](C)[C@@H]1NC(=O)[C@H](C)NC(=O)[C@H]([C@@H](C)CC)NC(=O)[C@H](CCC(N)=O)NC(=O)[C@H](C)NC(=O)[C@H](CCCNC(=N)N)NC(=O)[C@H](C(C)C)NC(=O)[C@H](CC(C)C)NC(=O)[C@H](CCC(=O)O)NC(=O)[C@H](CCCNC(=N)N)NC(=O)CNC(=O)[C@@H](NC(=O)[C@H](CC(C)C)NC(=O)[C@H](CCCCN)NC(=O)[C@@H](NC(=O)[C@@H](NC(=O)[C@H](CCC(=O)O)NC(=O)[C@H](CCC(=O)O)NC(=O)[C@H](CCSC)NC(=O)[C@H](Cc2c[nH]c3ccccc23)NC(=O)[C@H](CO)NC(=O)[C@H](C)N)C(C)C)[C@@H](C)CC)CSSC[C@@H]2NC(=O)[C@@H](NC(=O)[C@H](CCCCN)NC(=O)[C@H](CC(N)=O)NC(=O)[C@H](C)NC(=O)[C@H](CC(C)C)NC(=O)[C@H](C)NC(=O)[C@H](CO)NC(=O)[C@H](Cc3ccc(O)cc3)NC(=O)[C@H](CC(C)C)NC(=O)[C@@H](N)Cc3ccc(C(C)=NOCCNC(=O)[C@H](CCCCN)NC(=O)[C@H](CCCCN)NC(=O)[C@H](CO)NC(=O)CNC(=O)CNC(=O)[C@H](CO)NC(=O)CNC(=O)CNC(=O)CC[C@H](NC(=O)CCCCCCCCCCCCC(=O)O)C(=O)O)cc3)CSSC[C@H](NC(=O)CNC(=O)[C@H](C(C)C)NC(=O)[C@H](Cc3c[nH]cn3)NC2=O)C(=O)N[C@@H]([C@@H](C)O)C(=O)N[C@@H](CCCCN)C(=O)N[C@@H](CCCNC(=N)N)C(=O)N[C@@H](CO)C(=O)N[C@@H](CC(C)C)C(=O)N[C@@H](C)C(=O)N[C@@H](CCCNC(=N)N)C(=O)N[C@@H](Cc2ccccc2)C(=O)N[C@H](C(=O)O)CSSC[C@@H](C(=O)NCC(=O)N[C@@H](CCSC)C(=O)N[C@@H](CO)C(=O)N[C@H](C(=O)N[C@@H](Cc2c[nH]c3ccccc23)C(=O)N[C@@H](CO)C(=O)O)[C@@H](C)O)NC1=O` [AQ1-KKSGGSGG-Glu^γ-C13-COOH] returned an EC50 of 0.34 nM.

Molecule `CC[C@H](C)[C@@H]1NC(=O)[C@H](C)NC(=O)[C@H]([C@@H](C)CC)NC(=O)[C@H](CCC(N)=O)NC(=O)[C@H](C)NC(=O)[C@H](CCCNC(=N)N)NC(=O)[C@H](C(C)C)NC(=O)[C@H](CC(C)C)NC(=O)[C@H](CCC(=O)O)NC(=O)[C@H](CCCNC(=N)N)NC(=O)CNC(=O)[C@@H](NC(=O)[C@H](CC(C)C)NC(=O)[C@H](CCCCN)NC(=O)[C@@H](NC(=O)[C@@H](NC(=O)[C@H](CCC(=O)O)NC(=O)[C@H](CCC(=O)O)NC(=O)[C@H](CCSC)NC(=O)[C@H](Cc2c[nH]c3ccccc23)NC(=O)[C@H](CO)NC(=O)[C@H](C)N)C(C)C)[C@@H](C)CC)CSSC[C@@H]2NC(=O)[C@@H](NC(=O)[C@H](CCCCN)NC(=O)[C@H](CC(N)=O)NC(=O)[C@H](C)NC(=O)[C@H](CC(C)C)NC(=O)[C@H](C)NC(=O)[C@H](CO)NC(=O)[C@H](Cc3ccc(O)cc3)NC(=O)[C@H](CC(C)C)NC(=O)[C@@H](N)Cc3ccc(/C(C)=N/OCCNC(=O)[C@H](CCCCN)NC(=O)CNC(=O)[C@@H]4CCCN4C(=O)CC[C@H](NC(=O)CCCCCCCCCCCCCC(=O)O)C(=O)O)cc3)CSSC[C@H](NC(=O)CNC(=O)[C@H](C(C)C)NC(=O)[C@H](Cc3c[nH]cn3)NC2=O)C(=O)N[C@@H]([C@@H](C)O)C(=O)N[C@@H](CCCCN)C(=O)N[C@@H](CCCNC(=N)N)C(=O)N[C@@H](CO)C(=O)N[C@@H](CC(C)C)C(=O)N[C@@H](C)C(=O)N[C@@H](CCCNC(=N)N)C(=O)N[C@@H](Cc2ccccc2)C(=O)N[C@H](C(=O)O)CSSC[C@@H](C(=O)NCC(=O)N[C@@H](CCSC)C(=O)N[C@@H](CO)C(=O)N[C@H](C(=O)N[C@@H](Cc2c[nH]c3ccccc23)C(=O)N[C@@H](CO)C(=O)O)[C@@H](C)O)NC1=O` [AQ1-KGP-Glu^γ-C14-COOH] displayed an EC50 of 0.27 nM. `CC[C@H](C)[C@@H]1NC(=O)[C@H](C)NC(=O)[C@H]([C@@H](C)CC)NC(=O)[C@H](CCC(N)=O)NC(=O)[C@H](C)NC(=O)[C@H](CCCNC(=N)N)NC(=O)[C@H](C(C)C)NC(=O)[C@H](CC(C)C)NC(=O)[C@H](CCC(=O)O)NC(=O)[C@H](CCCNC(=N)N)NC(=O)CNC(=O)[C@@H](NC(=O)[C@H](CC(C)C)NC(=O)[C@H](CCCCN)NC(=O)[C@@H](NC(=O)[C@@H](NC(=O)[C@H](CCC(=O)O)NC(=O)[C@H](CCC(=O)O)NC(=O)[C@H](CCSC)NC(=O)[C@H](Cc2c[nH]c3ccccc23)NC(=O)[C@H](CO)NC(=O)[C@H](C)N)C(C)C)[C@@H](C)CC)CSSC[C@@H]2NC(=O)[C@@H](NC(=O)[C@H](CCCCN)NC(=O)[C@H](CC(N)=O)NC(=O)[C@H](C)NC(=O)[C@H](CC(C)C)NC(=O)[C@H](C)NC(=O)[C@H](CO)NC(=O)[C@H](Cc3ccc(O)cc3)NC(=O)[C@H](CC(C)C)NC(=O)[C@@H](N)Cc3ccc(/C(C)=N/OCCNC(=O)CCC(=O)NCCCNCCCCNCCCNC(=O)CC[C@H](NC(=O)CCCCCCCCCCCCCC(=O)O)C(=O)O)cc3)CSSC[C@H](NC(=O)CNC(=O)[C@H](C(C)C)NC(=O)[C@H](Cc3c[nH]cn3)NC2=O)C(=O)N[C@@H]([C@@H](C)O)C(=O)N[C@@H](CCCCN)C(=O)N[C@@H](CCCNC(=N)N)C(=O)N[C@@H](CO)C(=O)N[C@@H](CC(C)C)C(=O)N[C@@H](C)C(=O)N[C@@H](CCCNC(=N)N)C(=O)N[C@@H](Cc2ccccc2)C(=O)N[C@H](C(=O)O)CSSC[C@@H](C(=O)NCC(=O)N[C@@H](CCSC)C(=O)N[C@@H](CO)C(=O)N[C@H](C(=O)N[C@@H](Cc2c[nH]c3ccccc23)C(=O)N[C@@H](CO)C(=O)O)[C@@H](C)O)NC1=O` [AQ1-Spermine-Glu^γ-C14-COOH] returned an EC50 of 0.39 nM.
